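Abbreviation: GI50, concentration required for 50% inhibition of growth. TGI marks complete inhibition of growth.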
Legend:
Test in all cases: inhibition of tumour cell growth, NCI panel, 384-well format
NCI/ADR-RES ovarian = system: NCI/ADR-RES ovarian
EKVX NSCLC = system: EKVX NSCLC
SK-MEL-2 melanoma = system: SK-MEL-2 melanoma
HT29 colon = system: HT29 colon
HCT-15 colon = system: HCT-15 colon
SR leukemia = system: SR leukemia
OVCAR-8 ovarian = system: OVCAR-8 ovarian
SK-MEL-5 melanoma = system: SK-MEL-5 melanoma
HCT-116 colon = system: HCT-116 colon
SK-MEL-28 melanoma = system: SK-MEL-28 melanoma
ACHN renal = system: ACHN renal
NCI-H522 lung = system: NCI-H522 lung
T-47D breast = system: T-47D breast
TK-10 renal = system: TK-10 renal
HS 578T breast = system: HS 578T breast
HL-60(TB) leukemia = system: HL-60(TB) leukemia
786-0 renal = system: 786-0 renal
MOLT-4 leukemia = system: MOLT-4 leukemia
MCF7 breast = system: MCF7 breast
HOP-92 NSCLC = system: HOP-92 NSCLC
SW-620 colon = system: SW-620 colon
LOX IMVI melanoma = system: LOX IMVI melanoma
MALME-3M melanoma = system: MALME-3M melanoma
NCI-H460 NSCLC = system: NCI-H460 NSCLC
UACC-62 melanoma = system: UACC-62 melanoma
OVCAR-3 ovarian = system: OVCAR-3 ovarian
RPMI-8226 leukemia = system: RPMI-8226 leukemia
HCC-2998 colon = system: HCC-2998 colon
CCRF-CEM leukemia = system: CCRF-CEM leukemia
NCI-H23 lung = system: NCI-H23 lung
K-562 leukemia = system: K-562 leukemia
UO-31 renal = system: UO-31 renal
SNB-75 CNS = system: SNB-75 CNS
CAKI-1 renal = system: CAKI-1 renal
DU-145 prostate = system: DU-145 prostate
HOP-62 NSCLC = system: HOP-62 NSCLC
SN12C renal = system: SN12C renal
COLO 205 colon = system: COLO 205 colon
MDA-MB-468 breast = system: MDA-MB-468 breast
SF-295 CNS = system: SF-295 CNS
SF-268 CNS = system: SF-268 CNS
SNB-19 CNS = system: SNB-19 CNS
NCI-H226 lung = system: NCI-H226 lung
A549 NSCLC = system: A549 NSCLC
U251 glioblastoma = system: U251 glioblastoma
SF-539 CNS = system: SF-539 CNS
SK-OV-3 ovarian = system: SK-OV-3 ovarian
KM12 colon = system: KM12 colon
MDA-MB-435 melanoma = system: MDA-MB-435 melanoma
IGROV1 ovarian = system: IGROV1 ovarian
MDA-MB-231 breast = system: MDA-MB-231 breast
PC-3 prostate = system: PC-3 prostate
NCI-H322M lung = system: NCI-H322M lung
M14 melanoma = system: M14 melanoma
RXF 393 renal = system: RXF 393 renal
OVCAR-5 ovarian = system: OVCAR-5 ovarian
A498 renal = system: A498 renal
OVCAR-4 ovarian = system: OVCAR-4 ovarian

## Cc1ccc(C(=O)N(CCCN)[C@@H](c2nc3cc(Cl)ccc3c(=O)n2Cc2ccccc2)C(C)C)cc1
NCI/ADR-RES ovarian
  GI50: 109 nM
  TGI: 263 nM
EKVX NSCLC
  GI50: < 10 nM
  TGI: 1220 nM
SK-MEL-2 melanoma
  GI50: < 10 nM
  TGI: < 10 nM
HT29 colon
  GI50: < 10 nM
  TGI: 1000 nM
HCT-15 colon
  GI50: < 10 nM
  TGI: 1280 nM
SR leukemia
  GI50: < 10 nM
  TGI: < 10 nM
OVCAR-8 ovarian
  GI50: < 10 nM
  TGI: 1200 nM
SK-MEL-5 melanoma
  GI50: < 10 nM
  TGI: 14.7 nM
HCT-116 colon
  GI50: < 10 nM
  TGI: 1200 nM
SK-MEL-28 melanoma
  GI50: 1350 nM
  TGI: 2640 nM
ACHN renal
  GI50: 1140 nM
  TGI: 2370 nM
NCI-H522 lung
  GI50: < 10 nM
  TGI: < 10 nM
T-47D breast
  GI50: < 10 nM
  TGI: 1300 nM
TK-10 renal
  GI50: 94.9 nM
  TGI: 2070 nM
HS 578T breast
  GI50: < 10 nM
  TGI: < 10 nM
HL-60(TB) leukemia
  GI50: < 10 nM
  TGI: < 10 nM
786-0 renal
  GI50: < 10 nM
  TGI: 1420 nM
MOLT-4 leukemia
  GI50: < 10 nM
  TGI: < 10 nM
MCF7 breast
  GI50: < 10 nM
  TGI: 1270 nM
HOP-92 NSCLC
  GI50: < 10 nM
  TGI: 1700 nM
SW-620 colon
  GI50: < 10 nM
  TGI: 1060 nM
LOX IMVI melanoma
  GI50: < 10 nM
  TGI: 1530 nM
MALME-3M melanoma
  GI50: < 10 nM
  TGI: 1890 nM
NCI-H460 NSCLC
  GI50: < 10 nM
  TGI: < 10 nM
UACC-62 melanoma
  GI50: < 10 nM
  TGI: 1400 nM
OVCAR-3 ovarian
  GI50: < 10 nM
  TGI: < 10 nM
RPMI-8226 leukemia
  GI50: < 10 nM
  TGI: < 10 nM
HCC-2998 colon
  GI50: < 10 nM
  TGI: 112 nM
CCRF-CEM leukemia
  GI50: < 10 nM
  TGI: < 10 nM
NCI-H23 lung
  GI50: < 10 nM
  TGI: 1080 nM
K-562 leukemia
  GI50: < 10 nM
  TGI: < 10 nM
UO-31 renal
  GI50: 1080 nM
  TGI: 2290 nM
SNB-75 CNS
  GI50: < 10 nM
  TGI: 1950 nM
CAKI-1 renal
  GI50: < 10 nM
  TGI: 1920 nM
DU-145 prostate
  GI50: < 10 nM
  TGI: < 10 nM
HOP-62 NSCLC
  GI50: < 10 nM
  TGI: 1950 nM
SN12C renal
  GI50: < 10 nM
  TGI: 1790 nM
COLO 205 colon
  GI50: < 10 nM
  TGI: < 10 nM
MDA-MB-468 breast
  GI50: < 10 nM
  TGI: < 10 nM
SF-295 CNS
  GI50: < 10 nM
  TGI: < 10 nM
SF-268 CNS
  GI50: < 10 nM
  TGI: 1650 nM
SNB-19 CNS
  GI50: < 10 nM
  TGI: 1740 nM
NCI-H226 lung
  GI50: 1120 nM
  TGI: 2340 nM
A549 NSCLC
  GI50: < 10 nM
  TGI: 1800 nM
U251 glioblastoma
  GI50: < 10 nM
  TGI: 1430 nM
SF-539 CNS
  GI50: < 10 nM
  TGI: 20.2 nM
SK-OV-3 ovarian
  GI50: < 10 nM
  TGI: 1540 nM
KM12 colon
  GI50: < 10 nM
  TGI: 927 nM
MDA-MB-435 melanoma
  GI50: < 10 nM
  TGI: < 10 nM
IGROV1 ovarian
  GI50: 1100 nM
  TGI: 2320 nM
MDA-MB-231 breast
  GI50: < 10 nM
  TGI: 1780 nM
PC-3 prostate
  GI50: < 10 nM
  TGI: 1620 nM
NCI-H322M lung
  GI50: < 10 nM
  TGI: 1730 nM
M14 melanoma
  GI50: < 10 nM
  TGI: < 10 nM
RXF 393 renal
  GI50: < 10 nM
  TGI: < 10 nM
OVCAR-5 ovarian
  GI50: < 10 nM
  TGI: 1250 nM
A498 renal
  GI50: < 10 nM
  TGI: 1810 nM
OVCAR-4 ovarian
  GI50: < 10 nM
  TGI: 1890 nM

Source: PubChem BioAssay (NCI)
